Earlier results as cited in patent US11174289B1, “Artificial intelligence designed antimicrobial peptides” (International Business Machines Corporation, priority 2020, dated 2021).

What was measured:
[1] = no significant antimicrobial activity; strain not given
[2] = comparison value for the clinically used drug

Substance: FPVTWPTKWWKG [PuroB]
- MIC [1]: > 200 µg/mL

Substance: polymyxin B
- LD50 [2]: 20.5 mg/kg
